Reference: US20190255040A1, “COMPOSITION AND METHOD FOR TOPICAL JS-K AS THERAPY FOR ACTINIC KERATOSIS” (JSK THERAPEUTICS, INC, priority 2018, published 2019)

Columns and labels:
[1] = system: UV-induced skin damage in SKH1 mice; assay: Animal efficacy for UV damage: UVB-exposed SKH1 mice, topical treatment, skin histology; format: in vivo
Protocol: Eight week-old female SKH1 mice were used. There were 5 mice in the control (no treatment, no UV) group and 10 mice in each treatment group. Treated mice all received one exposure of 600 Joules/m2 of UVB.
Immediately after UVB treatment, mice in each group were treated as follows: 200 uL of acetone only; JS-K at a concentration of 12 mg/mL in 200 uL of acetone; JS-K at a concentration of 6 mg/mL in 200 uL of acetone. Treatments were started immediately after UVB exposure and given twice (8 hours apart) on Day 1 and Day 2. On Day 3, mice were sacrificed and skin collected for histologic analysis.
H&E staining was used (FIG. 2A) to evaluate the count of Sunburn Cells, which are keratinocytes undergoing UV-induced apoptosis. […] The differences with controls were statistically significant for the higher dose of JS-K (12 mg/mL).
8-OG is a marker of oxydative damage.

[2] = system: human squamous skin carcinoma Cells (HatCat cells); assay: Suppression of the growth in culture of human squamous skin carcinoma cells; format: cell-based; details: growth over a two-day period (FIG. 1), read-out: IC50 for suppressing growth of human squamous skin carcinoma cells
Protocol: FIG. 1 is a scatter plot illustrating the growth of human squamous skin carcinoma cells (HatCat 5K-Cells [10 μM]) over a two-day period;
Referring to FIG. 1, JS-K at 12 mg/mL in […] of acetone was active in suppressing the growth in culture of human squamous skin carcinoma Cells (HatCat cells) with IC50 concentrations <1000 nM, compared to no effect from dimethylsulfoxide (DMSO) or P1223 pluronic micellesAfd.

CCOC(=O)N1CCN(/[N+]([O-])=N/Oc2ccc([N+](=O)[O-])cc2[N+](=O)[O-])CC1 [JS-K, O2-(2,4-dinitrophenyl)1-[(4-ethoxycarbonyl)piperazin-1-yI]diazen-1-ium-1,2-diolate]
count of Sunburn Cells (keratinocytes undergoing UV-induced apoptosis), H&E staining ([1]; 600 Joules/m2 UVB, JS-K 6 or 12 mg/mL in 200 uL acetone topically twice daily Day 1-2, skin Day 3, significant only for 12 mg/mL): moderate decrease in the number of Sunburn Cells with a dose effect
percent of cells positive for 8-oxoguanine (8-OG), immunohistochemistry ([1]; 600 Joules/m2 UVB, JS-K 6 or 12 mg/mL in 200 uL acetone twice daily Day 1-2, dose effect, significant for both doses): fewer cells from the mice treated with JS-K were positive for 8-OG
epidermal thickness of UV-exposed skin ([1]; 600 Joules/m2 UVB, JS-K 6 or 12 mg/mL, 12 mg/mL markedly greater effect than 6 mg/mL): dose dependent JS-K effect on epidermal thickness
toxicity, skin irritation, skin ulceration or infection with the treatments ([1]; topical JS-K 6 or 12 mg/mL in 200 uL acetone twice daily Day 1-2): no evidence of toxicity, skin irritation, skin ulceration, or infection
IC50 [2]: < 1000 nM
